Experimental data reported in patent US10765114B2, “4-amino-6-(pyridyl and 2-substitutedphenyl)-picolinates and 6-amino-2-(pyridyl and 2-substitutedphenyl)-pyrimidine-4-carboxylates and their use as herbicides” (Dow AgroSciences LLC, priority 2013, dated 2020).
Read-outs that look alike come from different tables or passages of the source.

How the values were obtained:
[1] = test system: Key Broadleaf Weed and Crop Species; experiment: Post-Emergent Test II (Table 5); format: in vivo; settings: post-emergence, 336 h; for pest or weed control at 70 g/ha: application rate 70 (kg ai/ha; footnote: g ai/ha); for pest or weed control at 140 g/ha: application rate 140 (kg ai/ha; footnote: g ai/ha)
Method in brief: (§1)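 Plants grown in a greenhouse (~15 h photoperiod, 23-29° C day) to first or second true leaf stage were sprayed post-emergence at 187 L/ha with compound in acetone/DMSO-based aqueous spray containing crop oil concentrate and surfactant, applied at a high rate plus ½× to 1/16× serial rates. Injury was scored visually 14 days later, 0-100% versus untreated plants.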

[2] = test system: Key Grass and Sedge Weeds as well as Grass Crops; experiment: Post-Emergent Test II (Table 6); format: in vivo; settings: post-emergence, 336 h, 14 days after application; for pest or weed control at 70 g/ha: 70 g ai/ha; for pest or weed control at 140 g/ha: 140 g ai/ha
Method in brief: as §1

[3] = Abutilon theophrasti, ABUTH: velvetleaf (Abutilon theophrasti), read-out: Visual Growth Reduction (%) 14 Days After Application ABUTH
[4] = Amaranthus retroflexus, AMARE: redroot pigweed (Amaranthus retroflexus), read-out: Visual Growth Reduction (%) 14 Days After Application AMARE
[5] = Brassica napus, BRSSS: oilseed rape, canola (Brassica napus), read-out: Visual Growth Reduction (%) 14 Days After Application BRSSS
[6] = Chenopodium album, CHEAL: lambsquarters (Chenopodium album), read-out: Visual Growth Reduction (%) 14 Days After Application CHEAL
[7] = Euphorbia heterophylla, EPHHL: wild poinsettia (Euphorbia heterophylla), read-out: Visual Growth Reduction (%) 14 Days After Application EPHHL
[8] = Helianthus annuus, HELAN: sunflower (Helianthus annuus), read-out: Visual Growth Reduction (%) 14 Days After Application HELAN
[9] = Viola tricolor, VIOTR: wild pansy (Viola tricolor), read-out: Visual Growth Reduction (%) 14 Days After Application VIOTR
[10] = CYPSS, read-out: Visual Growth Reduction (%) 14 Days After Application CYPSS
[11] = DIGSA: crabgrass (Digitaria sanguinalis), read-out: Visual Growth Reduction (%) 14 Days After Application DIGSA
[12] = ECHSS, read-out: Visual Growth Reduction (%) 14 Days After Application ECHSS
[13] = ORYSS (crop), read-out: Visual Growth Reduction (%) 14 Days After Application ORYSS
[14] = SETFA: giant foxtail (Setaria faberi), read-out: Visual Growth Reduction (%) 14 Days After Application SETFA
[15] = SORVU: grain sorghum (Sorghum vulgare), read-out: Visual Growth Reduction (%) 14 Days After Application SORVU
[16] = TRZSS (crop), read-out: Visual Growth Reduction (%) 14 Days After Application TRZSS
[17] = ZEAMX: maize, corn (Zea mays), read-out: Visual Growth Reduction (%) 14 Days After Application ZEAMX

| Structure (SMILES) | pest or weed control at 70 g/ha [1, 3] | pest or weed control at 140 g/ha [1, 3] | pest or weed control at 70 g/ha [1, 4] | pest or weed control at 140 g/ha [1, 4] | pest or weed control at 70 g/ha [1, 5] | pest or weed control at 140 g/ha [1, 5] | pest or weed control at 70 g/ha [1, 6] | pest or weed control at 140 g/ha [1, 6] | pest or weed control at 70 g/ha [1, 7] | pest or weed control at 140 g/ha [1, 7] | pest or weed control at 70 g/ha [1, 8] | pest or weed control at 140 g/ha [1, 8] | pest or weed control at 70 g/ha [1, 9] | pest or weed control at 140 g/ha [1, 9] | pest or weed control at 70 g/ha [2, 10] | pest or weed control at 140 g/ha [2, 10] | pest or weed control at 70 g/ha [2, 11] | pest or weed control at 140 g/ha [2, 11] | pest or weed control at 70 g/ha [2, 12] | pest or weed control at 140 g/ha [2, 12] | further results |
| --- | --- | --- | --- | --- | --- | --- | --- | --- | --- | --- | --- | --- | --- | --- | --- | --- | --- | --- | --- | --- | --- |
| COC(=O)c1nc(-c2ccc(C(F)(F)F)nc2)nc(N)c1OC [Compound 43, methyl 6-amino-5-methoxy-2-(6-(trifluoromethyl)pyridin-3-yl)pyrimidine-4-carboxylate] | 0 to 29% | 0 to 29% | 30 to 44% | 60 to 74% | 30 to 44% | 45 to 59% | 0 to 29% | 0 to 29% | 30 to 44% | 60 to 74% | 0 to 29% | 30 to 44% | 0 to 29% | 0 to 29% | 0 to 29% | 60 to 74% | 30 to 44% | 60 to 74% | 0 to 29% | 0 to 29% | pest or weed control at 70 g/ha [2, 13]: 0 to 29%; pest or weed control at 140 g/ha [2, 13]: 0 to 29%; pest or weed control at 70 g/ha [2, 14]: 0 to 29%; pest or weed control at 140 g/ha [2, 14]: 0 to 29%; pest or weed control at 70 g/ha [2, 15]: 0 to 29%; pest or weed control at 140 g/ha [2, 15]: 0 to 29%; pest or weed control at 70 g/ha [2, 16]: 0 to 29%; pest or weed control at 140 g/ha [2, 16]: 0 to 29%; pest or weed control at 70 g/ha [2, 17]: 0 to 29%; pest or weed control at 140 g/ha [2, 17]: 0 to 29%; melting point: 148 to 149 °C |
| COC(=O)c1nc(-c2ccc(C(F)(F)F)nc2)c(F)c(N)c1Cl [Compound 59, methyl 4-amino-5-chloro-3-fluoro-6′-(trifluoromethyl)-[2,3′-bipyridine]-6-carboxylate] | 85 to 94% | 95 to 100% | 85 to 94% | 95 to 100% | 60 to 74% | 60 to 74% | 95 to 100% | 95 to 100% | 95 to 100% | 95 to 100% | 95 to 100% | 95 to 100% | 60 to 74% | 75 to 84% | 95 to 100% | 95 to 100% | 75 to 84% | 85 to 94% | 85 to 94% | 85 to 94% | pest or weed control at 70 g/ha [2, 13]: 0 to 29%; pest or weed control at 140 g/ha [2, 13]: 0 to 29%; pest or weed control at 70 g/ha [2, 14]: 60 to 74%; pest or weed control at 140 g/ha [2, 14]: 75 to 84%; pest or weed control at 70 g/ha [2, 15]: 75 to 84%; pest or weed control at 140 g/ha [2, 15]: 85 to 94%; pest or weed control at 70 g/ha [2, 16]: 45 to 59%; pest or weed control at 140 g/ha [2, 16]: 45 to 59%; pest or weed control at 70 g/ha [2, 17]: 75 to 84%; pest or weed control at 140 g/ha [2, 17]: 75 to 84%; melting point: 137 °C |
| COC(=O)c1nc(-c2ccc(Cl)c(F)c2C)c(F)c(N)c1Cl [Compound 68] | 95 to 100% | 95 to 100% | 95 to 100% | 95 to 100% | 85 to 94% | 95 to 100% | 95 to 100% | 95 to 100% | 0 to 29% | 0 to 29% | 95 to 100% | 95 to 100% | 30 to 44% | 30 to 44% | 0 to 29% | 0 to 29% | 0 to 29% | 0 to 29% | 0 to 29% | 0 to 29% | pest or weed control at 70 g/ha [2, 13]: 0 to 29%; pest or weed control at 140 g/ha [2, 13]: 0 to 29%; pest or weed control at 70 g/ha [2, 14]: 0 to 29%; pest or weed control at 140 g/ha [2, 14]: 0 to 29%; pest or weed control at 70 g/ha [2, 15]: 0 to 29%; pest or weed control at 140 g/ha [2, 15]: 0 to 29%; pest or weed control at 70 g/ha [2, 16]: 0 to 29%; pest or weed control at 140 g/ha [2, 16]: 0 to 29%; pest or weed control at 70 g/ha [2, 17]: 0 to 29%; pest or weed control at 140 g/ha [2, 17]: 0 to 29%; melting point: 154 to 156 °C |
